Assay results taken from US20060046966A1, “Antipicornaviral compounds and compositions, their pharmaceutical uses, and materials for their synthesis” (Agouron Pharmaceuticals, Inc., priority 1998, published 2006).
Like-named read-outs stand apart in the source and are kept apart here. Values belong to the compound of their own block, whether it stands above or below them.

Assays:
[1] = test system: HRV (38); assay: Antirhinoviral H1-HeLa cell culture assay, HRV serotype 38; format: cell-based; conditions: Human rhinovirus sp., H1-HeLa cells, XTT
Description: (§1) In this cell protection assay, the ability of compounds to protect cells against HRV infection was measured by the XTT dye reduction method, which is described in Weislow et al., J. Natl. Cancer Inst. 1989, vol. 81, 577-586.
(§2) H1-HeLa cells were infected with HRV-14 at a multiplicity of infection (m.o.i.) of 0.13 (virus particles/cell) or mock-infected with medium only. Infected or mock-infected cells were resuspended at 8×10^5 cells per mL, and incubated with appropriate concentrations of the compounds to be tested. Two days later, XTT/PMS was added to test plates and the amount of formazan produced was quantified spectrophotometrically at 450/650 nm. The EC50 value was calculated as the concentration of compound that increased the percentage of formazan production in compound-treated, virus-infected cells to 50% of that produced by compound-free, mock-infected cells. The 50% cytotoxic dose (CC50) was calculated as the concentration of compound that decreased the percentage of formazan produced in compound-treated, mock-infected cells to 50% of that produced by compound-free, mock-infected cells. The therapeutic index (TI) was calculated by dividing the CC50 value by the EC50 value. […]

[2] = test system: HRV-14; assay: Antirhinoviral H1-HeLa cell culture assay, HRV-14; format: cell-based, human rhinovirus; conditions: Rhinovirus B, HRV14, H1-HeLa, HRV serotype-14, H1-HeLa cells
Description: as §1
(§3) H1-HeLa cells were infected with HRV-14 at a multiplicity of infection (m.o.i.) of 0.13 (virus particles/cell) or mock-infected with medium only. Infected or mock-infected cells were resuspended at 8×10^5 cells per mL, and incubated with appropriate concentrations of the compounds to be tested. Two days later, XTT/PMS was added to test plates and the amount of formazan produced was quantified spectrophotometrically at 450/650 nm. The EC50 value was calculated as the concentration of compound that increased the percentage of formazan production in compound-treated, virus-infected cells to 50% of that produced by compound-free, mock-infected cells. The 50% cytotoxic dose (CC50) was calculated as the concentration of compound that decreased the percentage of formazan produced in compound-treated, mock-infected cells to 50% of that produced by compound-free, mock-infected cells. The therapeutic index (TI) was calculated by dividing the CC50 value by the EC50 value.
(§4) All strains of human rhinovirus (HRV) for use in this assay were purchased from American Type Culture Collection (ATCC), except for HRV serotype-14 (produced from the infectious cDNA clone constructed by Dr. Robert Rueckert, Institute for Molecular Virology, University of Wisconsin, Madison, Wis.). HRV stocks were propagated and viral assays were performed in H1-HeLa cells (ATCC). Cells were grown in minimal essential medium with 10% fetal bovine serum, available from Life Technologies (Gaithersburg, Md.).
(§5) The compounds were tested against control compounds WIN 51711, WIN 52084, and WIN 54954 (obtained from Sterling-Winthrop Pharmaceuticals), Pirodavir (obtained from Janssen Pharmaceuticals), and Pleconaril (prepared according to the method described in Diana et al., J. Med. Chem 1995, vol. 38, 1355). Antiviral data obtained for the test compounds are shown in Tables 1 and 3, where all data are for HRV serotype-14 unless otherwise noted in parentheses.

[3] = test system: HRV (89); assay: Antirhinoviral H1-HeLa cell culture assay, HRV serotype 89; format: cell-based, human rhinovirus; conditions: Human rhinovirus sp., H1-HeLa cells, XTT
Description: as §1, §3, §4, §5

[4] = test system: HRV (30); assay: Antirhinoviral H1-HeLa cell culture assay, HRV serotype 30; format: cell-based; conditions: Human rhinovirus sp., H1-HeLa cells, XTT
Description: as §1, §2

[5] = molecular target: T1, rhinovirus 3C protease from HRV serotype-14 (Human rhinovirus 14, UniProt P03303); assay: Inhibition of rhinovirus 3C protease (FRET assay), serotype 14; format: biochemical; conditions: HRV serotype-14 3C protease; progress curves in enzyme start experiments; read-out: Protease Inhibition kobs/[I]
T1 construct: Recombinant rhinovirus 3C proteases; made in house
T1 sequence (P03303 1538-1719): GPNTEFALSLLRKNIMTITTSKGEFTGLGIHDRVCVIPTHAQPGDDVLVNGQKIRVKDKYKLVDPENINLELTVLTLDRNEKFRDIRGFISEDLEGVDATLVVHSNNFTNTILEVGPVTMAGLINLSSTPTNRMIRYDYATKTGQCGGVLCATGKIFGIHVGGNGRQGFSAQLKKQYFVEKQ
Description: Stock solutions (50 mM, in DMSO) of various compounds were prepared; dilutions were in the same solvent. Recombinant rhinovirus 3C proteases (see Birch et al., “Purification of recombinant human rhinovirus 14 3C protease expressed in Escherichia coli,” Protein Expr. Pur. 1995, 6(5), 609-618) from serotypes 14, 16, and 2 were prepared by the following standard chromatographic procedures: (1) ion exchange using Q Sepharose Fast Flow from Pharmacia; (2) affinity chromatography using Affi-Gel Blue from Biorad; and (3) sizing using Sephadex G-100 from Pharmacia. Each assay sample contained 2% DMSO, 50 mM tris pH 7.6, 1 mM EDTA, a test compound at the indicated concentration, approximately 1 μM substrate, and 50-100 nM protease. The kobs/I values were obtained from reactions initiated by addition of enzyme rather than substrate. RVP activity was measured in the fluorescence resonance energy transfer assay. The substrate was (N-terminal) DABCYL-(Gly-Arg-Ala-Val-Phe-Gln-Gly-Pro-Val-Gly)-EDANS. In the uncleaved peptide, the EDANS fluorescence was quenched by the proximal DABCYL moiety. When the peptide was cleaved, the quenching was relieved, and activity was measured as an increase in fluorescence signal. In Table 1, all data are for rhinovirus 3C protease from HRV serotype-14 (produced from the infectious cDNA clone constructed by Dr. Robert Rueckert, Institute for Molecular Virology, University of Wisconsin, Madison, Wis.). […] The data in the column designated kobs/[I] were measured from progress curves in enzyme start experiments.

[6] = test system: HRV (13); assay: Antirhinoviral H1-HeLa cell culture assay, HRV serotype 13; format: cell-based, human rhinovirus; conditions: Human rhinovirus sp., H1-HeLa, H1-HeLa cells, XTT
Description: as §1, §3, §4
(§6) The compounds were tested against control compounds WIN 51711, WIN 52084, and WIN 54954 (obtained from Sterling-Winthrop Pharmaceuticals), Pirodavir (obtained from Janssen Pharmaceuticals), and Pleconaril (prepared according to the method described in Diana et al., J. Med. Chem 1995, vol. 38, 1355). […]

[7] = test system: HRV (39); assay: Antirhinoviral H1-HeLa cell culture assay, HRV serotype 39; format: cell-based, human rhinovirus; conditions: Human rhinovirus sp., H1-HeLa cells, XTT
Description: as §1, §3, §4, §6

[8] = test system: HRV (9); assay: Antirhinoviral H1-HeLa cell culture assay, HRV serotype 9; format: cell-based, human rhinovirus; conditions: Human rhinovirus sp., H1-HeLa cells, XTT
Description: as §1, §3, §4, §6

[9] = test system: HRV (3); assay: Antirhinoviral H1-HeLa cell culture assay, HRV serotype 3; format: cell-based, human rhinovirus; conditions: Human rhinovirus sp., H1-HeLa, H1-HeLa cells, XTT
Description: as §1, §3, §4, §6

[10] = test system: HRV (2); assay: Antirhinoviral H1-HeLa cell culture assay, HRV serotype 2; format: cell-based, human rhinovirus; conditions: Human rhinovirus sp., H1-HeLa, H1-HeLa cells, XTT
Description: as §1, §3, §4, §5

[11] = test system: HRV (10); assay: Antirhinoviral H1-HeLa cell culture assay, HRV serotype 10; format: cell-based, human rhinovirus; conditions: Human rhinovirus sp., H1-HeLa, H1-HeLa cells, XTT
Description: as §1, §3, §4, §5

[12] = test system: HRV (17); assay: Antirhinoviral H1-HeLa cell culture assay, HRV serotype 17; format: cell-based, human rhinovirus; conditions: Human rhinovirus sp., H1-HeLa cells, XTT
Description: as §1, §3, §4, §6

[13] = test system: HRV (1A); assay: Antirhinoviral H1-HeLa cell culture assay, HRV serotype 1A; format: cell-based; conditions: Human rhinovirus sp., H1-HeLa cells, XTT
Description: as §1, §3, §4, §5

[14] = test system: HRV (12); assay: Antirhinoviral H1-HeLa cell culture assay, HRV serotype 12; format: cell-based; conditions: Human rhinovirus sp., H1-HeLa cells, XTT
Description: as §1, §2

[15] = test system: HRV (16); assay: Antirhinoviral H1-HeLa cell culture assay, HRV serotype 16; format: cell-based; conditions: Human rhinovirus sp., H1-HeLa cells, XTT
Description: as §1, §3, §4, §6

[16] = test system: HRV (25); assay: Antirhinoviral H1-HeLa cell culture assay, HRV serotype 25; format: cell-based; conditions: Human rhinovirus sp., H1-HeLa cells, XTT
Description: as §1, §2

[17] = test system: HRV (87); assay: Antirhinoviral H1-HeLa cell culture assay, HRV serotype 87; format: cell-based; conditions: Human rhinovirus sp., H1-HeLa cells, XTT
Description: as §1, §2

[18] = test system: Echovirus type 11 (EV 11); assay: Anti-echoviral cell culture assay, EV 11; format: cell-based; conditions: Enterovirus B, MRC5, 96 h; Strain EV-11; MRC-5 cells; four days; XTT; read-out: EC50
Description: (§7) Echovirus type 11 (EV 11) and enterovirus type 70 (EV 70) were purchased from ATCC (Rockville, Md.). Virus stocks were propagated and antiviral assays were performed in MRC-5 cells (ATCC). Cells were grown in minimal essential medium with 10% fetal bovine serum (Life Technologies, Gaithersburg, Md.).
(§8) The ability of compounds to protect cells against either EV 11 or EV 70 infection was measured by the XTT dye reduction method (Weislow et al., J. Natl. Cancer Inst. 1989, vol. 81, 577-586). MRC-5 cells were infected with EV 11 or EV 70 at an m.o.i. of 0.003 or 0.004, respectively, or mock-infected with medium only. Infected or uninfected cells were added at 1×10^4 cells per well and incubated with appropriate concentrations of compound. Four days later, XTT/PMS was added to test plates, and the amount of formazan produced was quantified spectrophotometrically at 450/650 nm. The EC50 was calculated as the concentration of compound that increased the formazan production in compound-treated, virus-infected cells to 50% of that produced by compound-free, uninfected cells. The 50% cytotoxic dose (CC50) was calculated as the concentration of compound that decreased formazan production in compound-treated, uninfected cells to 50% of that produced in compound-free, uninfected cells. The therapeutic index (TI) was calculated by dividing the CC50 by the EC50.
The compounds were tested against control compounds Pirodavir (obtained from Janssen Pharmaceuticals) and Pleconaril (prepared according to Diana et al., J. Med. Chem. 1995, vol. 38, 1355). Antiviral data obtained for the test compounds against strain EV 11 and EV 70 are shown below in Table 5.

[19] = test system: Coxsackievirus type B3 (CVB-3); assay: Anticoxsackieviral cell culture assay, CVB-3; format: cell-based; conditions: 24 h, Strain CVB-3, H1-HeLa cells, one day, XTT, read-out: EC50
Description: (§9) Coxsackievirus types A-21 (CAV-21) and B3 (CVB-3) were purchased from American Type Culture Collection (ATCC, Rockville, Md.). Virus stocks were propagated and antiviral assays were performed in H1-HeLa cells (ATCC). Cells were grown in minimal essential medium with 10% fetal bovine serum (Life Technologies, Gaithersburg, Md.).
(§10) The ability of compounds to protect cells against either CAV-21 or CVB-3 infection was measured by the XTT dye reduction method. This method is described in Weislow et al., J. Natl. Cancer Inst. 1989, vol. 81, 577-586. H1-HeLa cells were infected with CAV-21 or CVB-3 at a multiplicity of infection (m.o.i.) of 0.025 or 0.075, respectively, or mock-infected with medium only. H1-HeLa cells were plated at 4×10^4 cells per well in a 96-well plate and incubated with appropriate concentrations of the test compound. One day (CVB-3) or two days (CAV-21) later, XTT/PMS was added to test plates and the amount of formazan produced was quantified spectrophotometrically at 450/650 nm. The EC50 was calculated as the concentration of compound that increased the formazan production in compound-treated, virus-infected cells to 50% of that produced by compound-free, uninfected cells. The 50% cytotoxic dose (CC50) was calculated as the concentration of compound that decreased formazan production in compound-treated, uninfected cells to 50% of that produced in compound-free, uninfected cells. The therapeutic index TI) was calculated by dividing the CC50 by the EC50.
(§11) The compounds were tested against control compounds WIN 54954 (obtained from Sterling-Winthrop Pharmaceuticals), Pirodavir (obtained from Janssen Pharmaceuticals), and Pleconaril (prepared according to Diana et al., J. Med. Chem. 1995, 38, 1355).

[20] = test system: enterovirus type 70 (EV 70); assay: Anti-enteroviral cell culture assay, EV 70; format: cell-based; conditions: Enterovirus D, MRC5, 96 h; Strain EV-70; MRC-5 cells; four days; XTT
Description: as §7
as §8, with “EC50. […]” for “EC50.”

[21] = test system: Coxsackievirus type A-21 (CAV-21); assay: Anticoxsackieviral cell culture assay, CAV-21; format: cell-based; conditions: 48 h, Strain CAV-21, H1-HeLa cells, two days, XTT, read-out: EC50
Description: as §9, §10, §11

[22] = test system: H1-HeLa cells; assay: Cytotoxicity in uninfected H1-HeLa cells (anticoxsackieviral assay, XTT); format: cell-based; conditions: 50% cytotoxic dose, Table 4
Description: as §10

- EC50 [1]: 50 nM
- EC50 ([2]; Table 1, XTT dye reduction, read-out: Cell Protection EC50): 2 nM
- EC50 ([2]; Table 3, XTT, read-out: EC50): 2 nM
- EC50 [3]: 4 nM
- EC50 [4]: 30 nM
- kinact/KI [5]: 270000 M⁻¹ s⁻¹
- EC50 [6]: 7 nM
- EC50 [7]: 10 nM
- EC50 [8]: 10 nM
- EC50 [9]: 20 nM
- EC50 [10]: 4 nM
- EC50 [11]: 20 nM
- EC50 [12]: 7 nM
- EC50 [13]: 10 nM
- EC50 [14]: 40 nM
- EC50 [15]: 10 nM
- EC50 [16]: 70 nM
- EC50 [17]: 20 nM
SMILES: CCOC(=O)/C=C/[C@H](C[C@@H]1CCNC1=O)NC(=O)[C@H](Cc1ccc(F)cc1)OC(=O)[C@@H](NC(=O)c1cc(C)on1)C(C)C [Compound C-2, Ethyl-3-{(5′-Methylisoxazole-3′-carbonyl)-L-Val-O-L-(4-F-Phe)-L-((S)-Pyrrol-Ala)}-E-Propenoate]

- EC50 ([2]; Table 3, XTT, read-out: EC50): 30 nM
- EC50 [19]: > 100 µM
- EC50 [21]: > 100 µM
SMILES: CCOC(=O)c1ccc(OCCC2CCN(c3ccc(C)nn3)CC2)cc1 [Pirodavir, reference compound]
- EC50 [18]: 3.7 µM
- EC50 [20]: 60 nM

SMILES: Cc1cc(CCCCCOc2c(Cl)cc(C3=NCCO3)cc2Cl)on1 [WIN 54954]
- CC50 [22]: > 100 µM
